In patent US7375180B2, “Methods and compositions related to IRM compounds and Toll-like receptor 8” (3M Innovative Properties Company, priority 2003, dated 2008):

What was measured:
[1] = target: T1, TLR8 (Homo sapiens, UniProt Q9NR97); assay: NF-κB-luciferase reporter activation in HEK293-TLR8 cells, 10 μM IRM (Example 1); assay type: cell-based; design: expressed in transfected cells; host or cells: HEK293 (ATCC CRL-1573), pIRES vector, G-418 selected, co-transfected with NFkB-luc reporter; conditions: for Fold Increase Over DMSO Control, HEK293-TLR8: 16 hours, luciferase signal, TLR8-transfected cells; for Fold Increase Over DMSO Control, HEK293-TLR8 / HEK293-vector: ratio of TLR8-transfected to vector-transfected cells
T1 sequence (Q9NR97 27-1041): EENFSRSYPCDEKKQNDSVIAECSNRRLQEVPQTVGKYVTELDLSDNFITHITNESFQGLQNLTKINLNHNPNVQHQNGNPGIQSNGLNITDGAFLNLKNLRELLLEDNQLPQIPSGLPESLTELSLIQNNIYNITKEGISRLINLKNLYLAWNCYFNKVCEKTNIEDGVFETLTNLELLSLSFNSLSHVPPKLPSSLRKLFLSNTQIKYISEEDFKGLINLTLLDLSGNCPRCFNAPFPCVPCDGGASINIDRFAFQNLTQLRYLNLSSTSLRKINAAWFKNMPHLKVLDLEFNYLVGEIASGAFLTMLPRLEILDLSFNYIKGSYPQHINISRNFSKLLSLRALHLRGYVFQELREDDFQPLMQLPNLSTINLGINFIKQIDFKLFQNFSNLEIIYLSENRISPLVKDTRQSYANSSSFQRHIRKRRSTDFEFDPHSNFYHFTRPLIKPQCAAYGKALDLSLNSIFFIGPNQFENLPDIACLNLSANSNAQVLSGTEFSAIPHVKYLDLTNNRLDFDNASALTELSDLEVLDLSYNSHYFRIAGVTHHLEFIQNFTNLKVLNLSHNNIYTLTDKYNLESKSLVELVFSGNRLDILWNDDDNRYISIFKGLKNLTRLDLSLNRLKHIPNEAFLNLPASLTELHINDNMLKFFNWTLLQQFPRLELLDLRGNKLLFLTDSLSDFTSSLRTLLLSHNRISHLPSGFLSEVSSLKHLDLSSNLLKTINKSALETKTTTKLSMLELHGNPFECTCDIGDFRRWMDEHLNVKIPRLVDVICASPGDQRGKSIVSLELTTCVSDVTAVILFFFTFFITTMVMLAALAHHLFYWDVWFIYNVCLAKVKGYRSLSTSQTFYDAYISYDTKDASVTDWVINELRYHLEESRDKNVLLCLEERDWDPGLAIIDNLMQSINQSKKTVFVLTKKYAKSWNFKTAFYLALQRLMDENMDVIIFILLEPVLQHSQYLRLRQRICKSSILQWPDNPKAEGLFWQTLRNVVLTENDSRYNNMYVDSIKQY
Text: (§1) HEK293 cells, derived from human embryonic kidney cells, may be co-transfected with (1) either a control vector (HEK293-vector) or a vector construct including human TLR8 (HEK293-TLR8), and (2) an NF-κB-luciferase reporter. The NF-κB-luciferase reporter provides a luciferase signal upon NF-κB activation in a transfected cell. Thus, TLR8-mediated NF-κB activity can be detected by exposing the cells transfected with vector and the cells transfected with the TLR8 construct to a test compound, then comparing the luciferase signal of the vector-transfected cells with the luciferase signal of the cells transfected with the TLR8 construct.
(§2) HEK293 cells were cultured in 90% Minimum Essential Medium (MEM) with 2 mM L-glutamine and Earle's Balanced Salt Solution (Invitrogen Corp., Rockville, Md.) adjusted to contain 1.5 g/L sodium bicarbonate, 0.1 mM non-essential amino acids, and 1.0 mM sodium pyruvate; 10% heat-inactivated fetal calf serum. The cells were incubated at 37° C., 8% CO2.
(§3) The cells were co-transfected with (1) pIRES (BD Biosciences Clontech, Palo Alto, Calif.) either (a) unmodified (HEK293-vector) or (b) containing human TLR8 (HEK293-TLR8), and (2) NFkB-luc reporter (Stratagene, La Jolla, Calif.) in a 10:1 ratio with Fugene 6 transfection reagent (Roche Diagnostics Corp., Indianapolis, Ind.) following the manufacturer's instructions.
(§4) The cells were stimulated with 1 μL of IRM compounds at 1 mM in DMSO (final IRM concentration of 10 μM) or 1 μL DMSO as a control. The plates were then incubated an additional 16 hours at 37° C., 5% CO2. Luminescence was measured on an LMAX luminometer (Molecular Devices Corp., Sunnyvale, Calif.).

[2] = system: HEK293-vector; assay: NF-κB-luciferase reporter activation in HEK293-vector control cells, 10 μM IRM (Example 1); assay type: cell-based, human; conditions: 16 hours, luciferase signal, vector-transfected cells; for fold induction at 10 µM: Homo sapiens, read-out: Fold Increase Over DMSO Control, HEK293-vector
Text: as §1, §2, §3, §4

Row | Compound | Fold Increase Over DMSO Control, HEK293-TLR8 [1] | Fold Increase Over DMSO Control, HEK293-TLR8 / HEK293-vector [1] | fold induction at 10 µM [2] | Fold Increase Over DMSO Control, HEK293-vector [2]
1 | Nc1nc2ccccc2c2c1ncn2CCOCC#Cc1ccncc1.O=C(O)C(F)(F)F.O=C(O)C(F)(F)F [IRM 8, 1-(2-{[3-(4-pyridyl)-2-propynyl]oxy}ethyl)-1H-imidazo[4,5-c]quinolin-4-amine bis(trifluoroacetate)] | 2.38 fold | 2.0 | 1.18 | 
2 | CCOCc1nc2c(N)nc3ccccc3c2n1CCCNC(=S)Nc1cccc(C#N)c1 [IRM 14, N-{3-[4-amino-2-(ethoxymethyl)-1H-imidazo[4,5-c]quinolin-1-yl]propyl}-n′-(3-cyanophenyl)thiourea] | 10.00 fold | 7.9 |  | 1.26 fold
3 | Nc1nc2ccccc2c2c1ncn2CCCCNC(=O)c1ccccc1Oc1ccccc1 [IRM 7, N^1-[4-(4-amino-1H-imidazo[4,5-c]quinolin-1-yl)butyl]-2-phenoxybenzamide] | 10.69 fold | 10.5 | 1.02 | 
4 | CCOCc1nc2c(N)nc3ccccc3c2n1CCOCCCOCc1ccccc1 [IRM 4, 1-{2-[3-(benzyloxy)propoxy]ethyl}-2-(ethoxymethyl)-1H-imidazo[4,5-c]quinolin-4-amine] | 2.64 fold | 6.4 | 0.41 | 
5 | CCCCc1nc2c(N)nc3cccnc3c2n1CCNC(=O)C(N)CC(C)C (stereo not drawn) [IRM 6, N^1-[2-(4-amino-2-butyl-1H-imidazo[4,5-c][1,5]naphthyridin-1-yl)ethyl]-2-amino-4-methylpentanamide] | 9.24 fold | 7.8 | 1.19 | 
6 | CCCCNC(=O)NCCCCn1c(CCCC)nc2c(N)nc3cccnc3c21 [IRM 5, N-[4-(4-amino-2-butyl-1H-imidazo[4,5-c][1,5]naphthyridin-1-yl)butyl]-n′-butylurea] | 2.13 fold | 2.5 |  | 0.84 fold

Further lines, with some results ahead:

Row | Fold Increase Over DMSO Control, HEK293-TLR8 [1] | Fold Increase Over DMSO Control, HEK293-TLR8 / HEK293-vector [1] | Compound | fold induction at 10 µM [2] | Fold Increase Over DMSO Control, HEK293-vector [2]
7 | 3.14 fold | 2.1 | CCOCc1nc2c(N)nc3ccccc3c2n1CC(C)(C)N [IRM 11, 1-(2-amino-2-methylpropyl)-2-(ethoxymethyl)-1H-imidazo[4,5-c]quinolin-4-amine] | 1.47 | 
8 | 7.25 fold | 6.7 | COCCc1nc2c(N)nc3ccccc3c2n1CCOCCNC(=O)Nc1ccccc1 [IRM 10, N-(2-{2-[4-amino-2-(2-methoxyethyl)-1H-imidazo[4,5-c]quinolin-1-yl]ethoxy}ethyl)-n′-phenylurea] |  | 1.08 fold
9 | 10.18 fold | 8.8 | COCCc1nc2c(N)nc3ccccc3c2n1CC(C)(C)O [IRM 2, 4-amino-α,α-dimethyl-2-methoxyethyl-1H-imidazo[4,5-c]quinoline-1-ethanol] |  | 1.16 fold
10 | 2.14 fold | 2.7 | CCCCc1nc2c(N)nc3ccccc3c2n1CC(C)(C)CNC(=O)c1ccccc1 [IRM 15, N-[3-(4-amino-2-butyl-1H-imidazo[4,5-c]quinolin-1-yl)-2,2-dimethylpropyl]benzamide] | 0.78 | 
11 | 8.64 fold | 11.2 | CCCCc1nc2c(N)nc3ccccc3c2n1CCNS(C)(=O)=O [IRM 9, N-[2-(4-amino-2-butyl-1H-imidazo[4,5-c]quinolin-1-yl)ethyl]methanesulfonamide] | 0.77 | 
